Measurements published in article PMC9115112, “A2B adenosine receptor antagonists rescue lymphocyte activity in adenosine-producing patient-derived cancer models” (Journal for Immunotherapy of Cancer, 2022).

Key:
hA2B (A2BAR) = target: T1, hA2B (A2BAR) (Homo sapiens, UniProt P29275); test: cAMP assay, NECA-stimulated, HEK-293 cells with transfected A2BAR; assay type: cell-based; settings: n=3, read-out: Kb hA2B (cAMP production)
T1 construct: expressed in transfected cells; host or cells: HEK-293
T1 sequence (P29275 1-332): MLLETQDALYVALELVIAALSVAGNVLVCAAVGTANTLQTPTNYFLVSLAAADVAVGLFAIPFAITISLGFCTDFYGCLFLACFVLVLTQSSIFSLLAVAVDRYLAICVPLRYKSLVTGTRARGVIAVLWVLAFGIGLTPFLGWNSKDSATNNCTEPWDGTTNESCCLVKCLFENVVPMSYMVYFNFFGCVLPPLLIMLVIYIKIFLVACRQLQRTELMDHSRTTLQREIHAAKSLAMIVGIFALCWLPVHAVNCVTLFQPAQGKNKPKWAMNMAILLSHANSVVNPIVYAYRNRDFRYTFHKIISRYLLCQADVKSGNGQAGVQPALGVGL
Description: Assays were performed in transfected A2BAR using a cyclic AMP (cAMP) enzyme immunoassay kit (Amersham Biosciences) following previously described protocols.[28 30] HEK-293 cells were seeded (10,000 cells/well) in 96-well culture plates and incubated at 37°C in an atmosphere with 5% CO2 in Eagle’s Medium Nutrient Mixture F-12 (EMEM F-12), containing 10% fetal calf serum (FCS) and 1% L-Glutamine. Cells were washed three times with 200 µL assay medium (EMEM-F12 and 25 mM HEPES pH=7.4) and pre-incubated with assay medium containing 30 µM rolipram and test compounds at 37°C for 15 min. Ten µM NECA was incubated for 15 min at 37°C (total incubation time 30 min). Reaction was stopped with lysis buffer supplied in the kit and the enzyme immunoassay was carried out for detection of intracellular cAMP at 450 nm in an Ultra Evolution detector (Tecan). The dose-response curve of NECA-elicited cAMP formation was used to determine the initial choice of A2BAR antagonist concentration (online supplemental figure 2).

[1] = test system: healthy donor T cells (PBMCs) and NK cells; test: CFSE proliferation assay with exogenous adenosine; assay type: cell-based, human; settings: exogenous adenosine 0.1 mM, antagonist 12 µM, 3 days (T) and 6 days (NK)
Description: Freshly isolated PBMCs and NK cells were stained with 5 µM FITC-conjugated carboxyfluorescein succinimidyl ester (CFSE, BioLegend) in phosphate-buffered saline (PBS) (Life Technologies) at room temperature for 5 min. CSFE stained cells were washed with flow cytometer buffer three times. CSFE-labeled healthy PBMCs and NK cells were cultured in 96-well plates with X-VIVO20% and 1% PS for 3 and 6 days, respectively. Healthy PBMCs were incubated with Human T-activator CD3/CD28 beads at 1:4 ratio (Thermo Fisher Scientific) and IL-2 (Novartis) at 100 IU/mL. Healthy donor NK cells were incubated with 1000 IU/mL IL-2 only. 2×10^5 PBMCs and 5×10^4 NK cells were counted for treatment with ADO (Sigma-Aldrich) and 12 μM of A2BAR antagonist at the same day.
Figure 3 Rescue of lymphocyte proliferation by of A2BAR antagonism. Relative proliferation of: (A) CD45RA- CD4 T cells, (B) CD45RA+ CD4 T cells, (C) CD45RA- CD8 T cells, (D) CD45RA+ CD8 T cells, and (E) NK cells, after incubation with exogenous adenosine 0.1 mM and A2BAR antagonist 12 µM for 3 (A–D) and 6 (E) days. (n=10 healthy donors) CD45RA expression differentiates naïve and effector T cells from central and effector memory T cells. Box plots with minimum, first quartile, median, third quartile, and maximum are presented. Unpaired and non-parametric statistical analysis—Mann-Whitney test was performed against untreated control with *p<0.05, **p<0.01, ***p<0.001, and ****p<0.0001. (F–J) Representative CFSE histogram on the corresponding lymphocyte subset. CFSE, carboxyfluorescein succinimidyl ester.

[2] = test system: healthy donor T cells in MPNST patient-derived sarcoma spheroid; test: Proliferation assay with CD73-expressing patient-derived sarcoma (MPNST) spheroid; assay type: cell-based, human; settings: antagonist 12 µM, 3 days, endogenous adenosine, n=5 healthy donors
Description: A malignant peripheral nerve sheath tumor (MPNST) patient-derived sarcoma cell line was used to grow spheroid by seeding 1×10^4 cells per well in a 96-well ultra-low attachment plate (Thermo Fisher Scientific) with DMEM-F12 media containing 20% FBS and 1% PS for 5 days. 1×10^5 CSFE-labeled healthy PBMCs, ratio of 10:1, were added to the CD73 expressing, adenosine-producing spheroid at day five. Similar to the proliferation assay with exogenous ADO, CD3/CD28 beads at 1:4 ratio and IL-2 at 100 IU/mL were added. A2BAR antagonism treatment at 12 μM was added at the same day.
Figure 5 Rescue of lymphocyte proliferation in sarcoma spheroids by A2BAR antagonism. Relative proliferation of: (A) CD45RA- CD4 T cells, (B) CD45RA+CD4 T cells, (C) CD45RA- CD8 T cells and (D) CD45RA+ CD8 T cells after antagonist 12 µM treatment for 3 days in MPNST patient-derived sarcoma spheroid. (n=5 healthy donors) Box plots with minimum, first quartile, median, third quartile, and maximum are presented. Unpaired and non-parametric statistical analysis—Mann-Whitney test was performed against untreated control with *p<0.05, **p<0.01, ***p<0.001, and ****p<0.0001. (E) Representative CSFE dilution of CD45RA+ CD8 T cells. CD45RA expression differentiates naïve and effector T cells from central and effector memory T cells. MPNST, malignant peripheral nerve sheath tumors; UPS, undifferentiated pleomorphic sarcoma.

[3] = test system: pAMPK in CD4 and CD8 T cells; test: Extracellular ADO uptake assay via pAMPK staining; assay type: cell-based, human; settings: antagonist 12 µM, 50 µM exogenous adenosine, n=7 healthy donors
Description: Experimental setup was adopted from a previous study whereby AR antagonist was added to pretreat cells before exogenous adenosine treatment for intracellular and cytokine staining.[37] In brief, PBMCs were treated with 12 µM of A2BAR antagonists for 90 min before the addition of 50 µM of adenosine for 2 hours. Cells were harvested after 3 hours of CD3/CD28 bead stimulation before intracellular staining with phosphor-AMPK (Thr183, Thr172) rabbit primary antibody (Thermo Fisher Scientific) and antirabbit secondary antibody (BD biosciences).
(§1) Figure 4 Rescue of lymphocyte proinflammatory cytokine production IFNy and perforin by A2BAR antagonism. (A,B) Inhibition of extracellular adenosine uptake via phosphorylated-AMP activated protein kinase (pAMPK) staining (n=7 healthy donors). Production of proinflammatory cytokines—(C,D) IFNy and (E) perforin in CD4 (n=5 healthy donors) and CD8 (n=6 healthy donors) T cells. Expression of CD69 adhesion molecule in (F). CD4 (n=7 healthy donors) and (G) CD8 (n=4 healthy donors) T cells. A2BAR antagonist 12 µM was added. Outlier is presented as diamond shape and defined by Tukey’s rule, which is not included in statistical analysis. Box plots with minimum, first quartile, median, third quartile, and maximum are presented. Normalized fold change is based on percent values compared with untreated controls. Unpaired and non-parametric statistical analysis—Mann-Whitney test was performed against untreated control with *p<0.05, **p<0.01, ***p<0.001, and ****p<0.0001.

[4] = test system: CD4 and CD8 T cells (healthy donor PBMCs); test: IFNy and perforin cytokine production assay, with CD69 expression (flow cytometry); assay type: cell-based, human; settings: antagonist 12 µM, exogenous adenosine
Description: Similar experimental setup was performed as the extracellular ADO uptake assay. Cells were harvested after 2 days of CD3/CD28 bead stimulation before treatment with PMA/ionomycin (Sigma Aldrich) and golgi-inhibitors (BD biosciences). After 3 hours of subsequent incubation, intracellular staining was performed for IFNy and perforin (online supplemental table 1).
as §1

[5] = test system: autologous TILs and patient-derived sarcoma spheroids; test: Spheroid infiltration by autologous TILs (real-time imaging and flow cytometry); assay type: cell-based, human; settings: antagonist 12 µM, 3 days, n=8 donors, not statistically significant
Description: Spheroids were prepared using patient-derived sarcoma cell lines. 1×10^4 cells were seeded per well in 96-well ultra-low attachment plate with DMEM-F12 media containing 20% FBS and 1% PS for 5 days. 3×10^4 CSFE-labeled autologous expanded TILs, at Effector:target ratio of 3:1, were added to the spheroid at day five with A2BAR antagonism treatment at 12 µM. After 3 days, spheroid was removed and split into two groups—IN and OUT. […] Spheroids were washed with PBS at least two times. GentleMACS tumor dissociation kit (Miltenyi Biotec) was used to digest the spheroids for FC analysis.
Brightfield and phase contrast images under 4X objective were acquired every 6 hours on IncuCyte S3 system (Essen BioScience). For breast cancer patient-derived spheroid culture, 1×10^4 cells per well were seeded with A2BAR antagonist at 12 µM treatment for 6 days real time imaging. For spheroid infiltration, after the addition of CSFE-labeled autologous expanded TILs and treatment with A2BAR antagonist at 12 µM, green fluorescence images were acquired for 3 days. All spheroid invasion analysis was performed using top hat segmentation with IncuCyte software.
Cell surface was stained with mouse monoclonal antihuman antibodies against CD3, CD4, CD8, CD45RA, CD56 and CD19 listed in online supplemental table 1. Cell surface antibodies and live/dead (L/D) marker were incubated with samples at 4°C for 20 min after washing two times with flow cytometry buffer containing 5% FBS in PBS. For spheroid infiltrated TIL phenotyping, digested IN and OUT spheroids were stained with cell surface marker and analyzed on NovoCyte (ACEA Bioscience) with the use of FlowJo software (Tree Star) by gating single cell based on forward and side scatters. A representative gating strategy for CD8 naïve T cells is shown in online supplemental figure 3A. Compensated flow cytometry standard (FCS) files with only live cells were concatenated for downstream tSNE analysis using the ‘cytofkit’ R package (https://github.com/JinmiaoChenLab/cytofkit).
Figure 6 Infiltration of TILs into autologous patient-derived sarcoma spheroids after A2BAR antagonist treatment. (A) Representative real-time imaging of spheroid TIL infiltration over 3 days under 4× objective. Green areas demarcate CFSE-labeled TILs infiltrated into the red boundary tumor spheroid. (B) Relative TIL infiltration into autologous spheroids (n=8 donors) measured by flow cytometer. Antagonist 12 µM was added with CSFE-labeled TILs after spheroid formation on day five. (C) Representative flow cytometry plot of CFSE positive TILs in CD73+ tumor spheroid. (D) tSNE analysis and (E) annotated pie chart of TILs within (IN) and outside of (OUT) the spheroids without treatment (n=8 donors, indicated within the pie chart). Wilcoxon Rank Sum test was performed to compare the various IN vs OUT adhesion markers. Expression of (F) CD3 T cells, (G) CD49a+ CD103+ among CD8 T cells and (H) CD69 MFI among CD4 T cells IN and OUT of the spheroids without treatment (n=8 donors). (I) Relative CD8/CD4 TIL ratio IN the spheroids. Differential expression of relative (J–L). CD49a+ CD103+ cells IN the spheroids (n=8 donors) of CD3, CD8, and CD4 TILs. Antagonist 12 µM was added for J–L. Outlier is presented as diamond shape and defined by Tukey’s rule, which is not included in statistical analysis. Box plots with minimum, first quartile, median, third quartile, and maximum are presented. Unpaired and non-parametric statistical analysis—Mann-Whitney test was performed against untreated control with *p<0.05, **p<0.01, ***p<0.001, and ****p<0.0001. CFSE, carboxyfluorescein succinimidyl ester; TIL, tumor infiltrating lymphocyte; tSNE, T-distributed stochastic neighboring embedding. TEXT PRINTED IN THE PICTURE: (C) ISAM-R56A: TILs 13.0 DOUBTS OF THE COPYIST ABOUT THIS PICTURE: Panel C, ISAM-R56A, TILs: the print is small, 13.0 could be 13.8 or 13.6 / Panel C also prints a gate label 'TILs 3.17' for the Untreated control. […]

Structure (SMILES) | Kb (hA2B (A2BAR)) | Rescue of lymphocyte (T and NK cell) proliferation [1] | Rescue of naïve and effector (CD45RA+) CD8 T cell proliferation in adenosine-producing sarcoma spheroids [2] | pAMPK (extracellular ADO uptake) in CD4 T cells [3] | IFNy production by T cells on adenosine suppression (subset not given) [4] | Perforin production by CD8 T cells on adenosine suppression [4] | Median increased TIL infiltration vs untreated [5]
CC1=C(C(=O)OC(C)C)C(c2ccco2)NC(=NC#N)N1 (stereo not shown) [SY1KO-24] | 116 nM | None of the other A2BAR antagonists (SY1AF–30, SY1AF–80 and SY1KO–24) had any measurable impact | – | – | – | – | –
CCOC(=O)C1=C(C)NC(=O)NC1c1ccsc1 (stereo not shown) [SY1AF-80] | 25.2 nM | None of the other A2BAR antagonists (SY1AF–30, SY1AF–80 and SY1KO–24) had any measurable impact | significantly rescued | significantly inhibited ADO uptake | – | – | –
CC1=C(C(=O)OC(C)C)C(c2ccco2)NC(=S)N1 (stereo not shown) [SY1AF-30] | 4.72 nM | None of the other A2BAR antagonists (SY1AF–30, SY1AF–80 and SY1KO–24) had any measurable impact | significantly rescued | – | significantly improved | significantly improved | –
Cc1cc(-c2nnc(N)nc2-c2ccc(F)cc2)cc(Cl)n1 [AZD-4635, reference compound] | – | did not restore the proliferation | – | – | – | – | 20%
